The values below come from patent publication US5663149A, “Human cancer inhibitory pentapeptide heterocyclic and halophenyl amides” (priority 1994, dated 1997).

The subject of one data set is Human Mammary Xenograft. Briefly: Human Mammary Xenograft in nude mouse. Type of data set: in vivo. As to conditions: dose 26 μg/kg. From the text:
(§1) Experimental Anti-cancer Activity of Dolastatin 10 in Murine in vivo Systems, T/C (μg/kg)
A general note: A xenograft is tissue or cells of one species grown in another, often human tumour cells in immunodeficient mice.

In data set [1] the test system is P388 Lymphocytic Leukemia. In words: Murine in vivo system, P388 Lymphocytic Leukemia. As to conditions: P388, dose 13.0 μg/kg.
Excerpt: as §1

A further data set has as its system M5076 Ovary Sarcoma. Briefly: Murine in vivo system, M5076 Ovary Sarcoma. As to conditions: M5076, dose 26 μg/kg.
Excerpt: as §1

In data set [2] the test system is LOX Human Melanoma Xenograft. Briefly: LOX Human Melanoma Xenograft in nude mouse. Format: in vivo. As to conditions: dose 52 μg/kg.
Excerpt: as §1

Another data set relates to SK-MEL-5 (Melanoma). Briefly: NCI human tumor cell line growth inhibition, SK-MEL-5. As to conditions: Melanoma SK-MEL-5, 48 hours. Format: cell-based. On the procedure:
(§2) The only difference is historical usage.
(§3) Percent Growths are calculated for each dose.
(§4) This is the "baseline count", or "Tzero reading".

The next data set concerns NCI-H460 (Lung-NSC). Briefly: NCI human tumor cell line growth inhibition, NCI-H460. As to conditions: Lung-NSC NCI-H460, 48 hours. Format: cell-based. As for the experimental part:
as §2, §3, §4

The subject of another data set is PS-388 (Mouse Leukemia). Briefly: P-388 mouse leukemia cell growth inhibition. Particulars: Mouse Leukemia PS-388. Format: cell-based. As for the experimental part:
as §2, §3, §4

The next data set concerns KM20L2 (Colon). Briefly: NCI human tumor cell line growth inhibition, KM20L2. Particulars: Colon KM20L2, 48 hours. Format: cell-based. As for the experimental part:
as §2, §3, §4

A further data set concerns SF-295 (CNS). In words: NCI human tumor cell line growth inhibition, SF-295. Type of data set: cell-based. Particulars: CNS SF-295, 48 hours. As for the experimental part: as §2, §3, §4
A further data set concerns OVCAR-3 (Ovarian). Briefly: NCI human tumor cell line growth inhibition, OVCAR-3. As to conditions: Ovarian OVCAR-3, 48 hours. Format: cell-based. As for the experimental part:
as §2, §3, §4

The test system of a further data set is A498 (Renal). As to conditions: Renal A498, 48 hours.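 Also: NCI protocol, compound given at five doses from 0.01 to 100 µg/ml, percent growth versus untreated controls relative to cell count at time zero, regression on log dose.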

A value given as a limit tells only on which side of the number the result lay.

Excerpt for A498 (Renal): The following measures are used to express drug activity by giving the drug dose which reduces cell growth to a specified percentage of growth:
There is no mathematical difference between ED50 and GI50, which are both calculated using the same formula. The only difference is historical usage.
TGI, (Total Growth Inhibition), is the drug dose needed to yield zero percent growth, i.e., just as many cells at the end of the experiment as were present in the beginning. Whether just as many cells were killed as were produced (steady state), or no growth occurred (total inhibition), cannot be distinguished.
Each drug is tested at five (5) doses: 100-10-1-0.1-0.01 μg/ml. Percent Growths are calculated for each dose. […] The log of the dose is used during the regression computation.
At the start of an experiment, cells from the in vitro cell cultures are inoculated into the appropriate tubes or microtiter plates. One set of control tubes/plates is immediately counted to determine the number of cells at the start of the experiment. This is the "baseline count", or "Tzero reading". At the end of the experiment (48 hours later) a second set of control tubes/plates is analyzed to determine the "Control Growth" value. The growth (or death) of cells relative to the initial quantity of cells is used to define the "Percent of Growth".

With `CC[C@H](C)[C@@H]([C@@H](CC(=O)N1CCC[C@H]1[C@H](OC)[C@@H](C)C(=O)N[C@@H](Cc1ccccc1)c1nccs1)OC)N(C)C(=O)[C@@H](NC(=O)[C@H](C(C)C)N(C)C)C(C)C` [Dolastatin 10], the “T/C outcome: toxic” value was “Toxic” with Human Mammary Xenograft, “toxic” in [1], “toxic” in the data set on M5076 Ovary Sarcoma and “toxic” in data set [2].

For orientation: TGI means the concentration giving total growth inhibition. A higher TGI goes with lower sensitivity of the cells. As for “L-Dolavalyl-L-Valyl-N-Methyl-(S,S,R)-Dolaisoleuinyl-(S,R,R)-Dolaproinyl-L- Methionine N-4-Chlorophenyl Amide [9e]”, the GI-50 in the data set on SK-MEL-5 (Melanoma) was 0.00000033 µg/mL; in the data set on NCI-H460 (Lung-NSC), 0.0000022 µg/mL; with KM20L2 (Colon) it was 0.00000084 µg/mL; with SF-295 (CNS), 0.0000023 µg/mL; with OVCAR-3 (Ovarian), 0.00000045 µg/mL; in the data set on A498 (Renal), 0.0000035 µg/mL. Besides, the LC-50 in the data set with SK-MEL-5 (Melanoma), with NCI-H460 (Lung-NSC), in the data set with KM20L2 (Colon), with SF-295 (CNS), with OVCAR-3 (Ovarian) and with A498 (Renal) was over 0.00001 µg/mL each time. Also, the total growth inhibition concentration (TGI) was over 0.01 ng/mL in the data set with SK-MEL-5 (Melanoma); 0.0085 ng/mL in the data set on NCI-H460 (Lung-NSC); 0.0051 ng/mL in the data set with KM20L2 (Colon); over 0.01 ng/mL in the data set on SF-295 (CNS); 0.0042 ng/mL in the data set on OVCAR-3 (Ovarian); over 0.01 ng/mL in the data set on A498 (Renal). The same molecule yielded an ED-50 with PS-388 (Mouse Leukemia) of 0.000603 µg/mL.

For “L-Dolavalyl-L-Valyl-N-Methyl-(S,S,R)-Dolaisoleuinyl-(S,R,R)-Dolaproinyl-L- Methionine N-4-Fluorophenyl Amide [9a]”, the GI-50 stood at 0.000038 µg/mL in the data set on SK-MEL-5 (Melanoma); 0.000089 µg/mL in the data set on NCI-H460 (Lung-NSC); 0.00005 µg/mL in the data set on KM20L2 (Colon); 0.0001 µg/mL with SF-295 (CNS); 0.000049 µg/mL in the data set on OVCAR-3 (Ovarian); 0.00025 µg/mL in the data set with A498 (Renal). The LC-50 in the data set with SK-MEL-5 (Melanoma), in the data set on NCI-H460 (Lung-NSC), with KM20L2 (Colon), with SF-295 (CNS), in the data set with OVCAR-3 (Ovarian) and in the data set with A498 (Renal) was over 0.001 µg/mL each time. The concentration for total growth inhibition (TGI) was 0.57 ng/mL with SK-MEL-5 (Melanoma); 0.66 ng/mL with NCI-H460 (Lung-NSC); 0.39 ng/mL with KM20L2 (Colon); over 1 ng/mL with SF-295 (CNS); 0.33 ng/mL in the data set with OVCAR-3 (Ovarian); over 1 ng/mL in the data set with A498 (Renal). The same molecule displayed an ED-50 with PS-388 (Mouse Leukemia) of 0.000317 µg/mL.

For the molecule “L-Dolavalyl-L-Valyl-N-Methyl-(S,S,R)-Dolaisoleuinyl-(S,R,R)-Dolaproinyl-L- Phenylalanine N-2,5-Dichlorophenyl Amide [9h]”, the GI-50 in the data set on SK-MEL-5 (Melanoma) stood at 0.0000031 µg/mL; in the data set on NCI-H460 (Lung-NSC), 0.0000029 µg/mL; in the data set with KM20L2 (Colon) it was 0.0000042 µg/mL; with SF-295 (CNS) it was 0.0000036 µg/mL; in the data set with OVCAR-3 (Ovarian), 0.0000031 µg/mL; in the data set with A498 (Renal) it was 0.000016 µg/mL. Also, the LC-50 with SK-MEL-5 (Melanoma), with NCI-H460 (Lung-NSC), with KM20L2 (Colon), with SF-295 (CNS), with OVCAR-3 (Ovarian) and with A498 (Renal) was over 0.0001 µg/mL throughout. Also, the concentration for total growth inhibition (TGI) is over 0.1 ng/mL in the data set on SK-MEL-5 (Melanoma); 0.012 ng/mL in the data set with NCI-H460 (Lung-NSC); 0.037 ng/mL in the data set with KM20L2 (Colon); over 0.1 ng/mL in the data set on SF-295 (CNS); 0.017 ng/mL in the data set with OVCAR-3 (Ovarian); over 0.1 ng/mL with A498 (Renal). Also, the ED-50 with PS-388 (Mouse Leukemia) is 0.0000482 µg/mL.

With “L-Dolavalyl-L-Valyl-N-Methyl-(S,S,R)-Dolaisoleuinyl-(S,R,R)-Dolaproinyl-L- Phenylalanine N-2-(6-Chloro)benzothiazole Amide [9k]”, the GI-50 came to 0.000003 µg/mL with SK-MEL-5 (Melanoma); 0.0000044 µg/mL with NCI-H460 (Lung-NSC); 0.000022 µg/mL in the data set on KM20L2 (Colon); 0.000022 µg/mL with SF-295 (CNS); 0.0000043 µg/mL in the data set with OVCAR-3 (Ovarian); 0.000031 µg/mL in the data set with A498 (Renal). Moreover, the total growth inhibition concentration (TGI) in the data set on SK-MEL-5 (Melanoma) was over 0.1 ng/mL; in the data set on NCI-H460 (Lung-NSC), 0.063 ng/mL; with KM20L2 (Colon), 0.072 ng/mL; with SF-295 (CNS) it was over 0.1 ng/mL; with OVCAR-3 (Ovarian), 0.027 ng/mL; in the data set with A498 (Renal) it was over 0.1 ng/mL. The ED-50 in the data set with PS-388 (Mouse Leukemia) is 0.000383 µg/mL.
